Measured values as given in patent US20240285594A1, “COMPOSITIONS AND METHODS FOR TREATING PAIN IN ANIMALS” (North Carolina State University, priority 2023, published 2024).

How the values were obtained:
prostaglandin E2 (PGE2) = test: Serum PGE2 after castration of piglets (Example 3); type: in vivo; details: intra-inguinal lidocaine; any time point
Method: Pairwise comparisons of treatments at −24 h: P≥0.77. […] Pairwise comparisons of treatments at 24 h post-castration: P≥0.11.
The objective of this study was to evaluate the effects of intranasal flunixin and intra-inguinal lidocaine application on the castration associated inflammatory response in piglets, as described in Example 1.

[1] = UPAPS behavioral pain scoring and rescue analgesia after castration (Part II); type: in vivo, piglets; details: -1 h, 0 h and +3 h relative to castration; compared to C (saline)
Method: Behavior scoring was obtained in real-time by observing each piglet for 4-min continuously using Unesp-Botucatu pig acute pain scale (UPAPS). Each piglet was scored by one trained observer at the following timepoints: 1 h before castration (−1 h), immediately post-castration (0 h), and 3 h post-castration (+3 h, FIG. 3). The 4-min sampling time was obtained from the methodology previously validated. Treatments were masked, randomized, and applied to each piglet by a senior researcher. The Unesp-Botucatu UPAPS scale evaluates five behavioral items, with each item divided into four descriptive levels. A numerical score was designated from “0” to “3”, with a “0” representing normal behavior (free of pain) and “3” corresponding to pronounced behavioral deviation (severe pain). Therefore, for each timepoint, piglets may receive a score ranging from 0 (min) to 15 (max; Table 3). Total pain scores were then calculated for each piglet per timepoint. […] This is most referred to rescue analgesia in the literature; and was conducted for each behavioral assessment. Total counts were calculated for piglets identified as requiring or not requiring rescue analgesia by treatment and timepoint. […]

cortisol = test: Serum cortisol after surgical or sham castration of piglets (Part I, physiological assessment); type: in vivo; details: 1 h post-castration, castrated piglets, compared to C (saline) and CL, FM 2.2 mg/kg intranasal, buffered lidocaine intra-inguinal
Method: A total of 197 Large White×Duroc cross male piglets from 35 litters were enrolled in the study (Table 1). Piglets were individually identified using ear tags (Allflex Global Piglet ear tags, Allflex Livestock Intelligence, Madison, WI), weighed and randomly allocated to one of eight treatment groups (FIG. 1).
Lidocaine was buffered by mixing 2 ml of 8.4% Sodium Bicarbonate to 20 ml of 2% lidocaine HCl injectable solution to achieve a pH of 6.8 (Lidocaine Hydrochloride, Covetrus, Dublin, Ohio, US). […] Piglets were held by both rear legs by one caretaker with the abdomen facing the individual administrating treatment. Buffered lidocaine was injected intra-inguinally (Picture 1) by a second caretaker using a ½ inch needle (Ideal® D3 20 Gauge, Neogen, Lansing, MI) inserted into a syringe (Prima Tech® 2 cc Bottle Mount Vaccinator, Prima Tech USA, Kenansville, NC). A total of 1.5 ml of buffered lidocaine per injection site was administered intramuscularly (IM) into each inguinal canal (left and right) at a 40-degree angle 5-7 cm from the scrotum and 2-3 cm from the abdominal wall. Piglets enrolled in the control treatment (C, S, CF, SF−T1: (C) Castration plus physiological saline (IM and IN; n=25); T2: (S) Sham plus physiological saline (IM and IN; n=25); T5: (CF) Castration plus flunixin (IN; n=25); T6: (SF) Sham plus flunixin (IN; n=24)) were handled in an identical manner and 1.5 ml of sterile saline was injected in the same two locations as described previously.
Immediately following intra-inguinal injection, piglets enrolled in the FM treatment groups were held in sternal recumbency by one individual and 2.2 mg/kg (Banamine®, Merck Animal Health, Madison, NJ, US) was administered in one nostril using was a MAD® nasal intranasal mucosal atomization device (Telefex Incorporated, Wayne, PA, US) attached to a Prima Tech® 0.5 cc bottle mount vaccinator. The same individual administered the treatment by gently holding the piglet's snout using their non-dominant hand to steady the head and administered the drug with the other hand. Piglets in the control group were handled in the same manner in an equivalent volume of 0.2 ml of sterile saline was administered as described above.
Castration was performed by one trained caretaker from the farm. Piglets were picked up, individually held by both hind legs with head down, and two vertical incisions were made through the skin of the scrotum over each testicle using a scalpel blade. Once the incisions were made, testicles were exposed, spermatic cords cut, and testicles were completely removed by traction. A sham castration was performed to mimic similar handling conditions in which piglets were picked up, held in the same manner, and had pressure applied to the scrotal area by the same individual responsible for castration.
Blood was collected 24 h prior to (−24 h), 1 h (1 h), and 24 h post castration (24 h, FIG. 2). Blood samples were collected using the technique described in other studies. The orbital sinus cavity was punctured using an Excel® disposable hypodermic needle 20G (Exel International, Quebec, Canada) and deposited into a 4 ml BD® red vacutainer serum tube (Med Vet International, Mettawa, IL). All tubes were maintained in a cooler and centrifuged (2,000×g for 15 min at 4° C.) no more than eight hours post-collection to separate serum. […]
Serum cortisol concentrations were quantified using a commercially available EIA kit (Arbor Assays DetectX Cortisol EIA Kit, Product #K003). […]

For `CCN(CC)CC(=O)Nc1c(C)cccc1C` [Buffered lidocaine, lidocaine], the “inflammation (PGE2)” value (prostaglandin E2 (PGE2)) was “did not mitigate inflammation”, the “total UPAPS scores” value [1] was “no effect” and the cortisol concentrations (cortisol) was “no effect”. For the same compound, the cortisol concentrations (cortisol; listed as CL) was “not different”.
